# Measurements: patent publication US10745452B2, “Combination of antimicrobial peptides and antibiotic drugs for treating diseases” (OMNIX MEDICAL LTD., priority 2016, dated 2020)
# Entries after “also recorded” stand apart in the source; their conditions may differ. Like-named read-outs stand apart in the source and are kept apart here. Ends that are not written are not given here. Peptide text beside a SMILES is read from it.
# Columns and labels:
# Format in all cases: cell-based
# [1] = tested on: Pseudomonas aeruginosa (ATCC BAA-2110); assay: Growth of MDR bacteria monitored by OD600 under peptide, antibiotic or co-treatment; conditions: FIG. 3B; for bacterial growth (OD600), stand-alone treatment / bacterial growth (OD600), combination: 17-20 h; for bacterial growth (OD600), combination: OMN6 32 μg/ml together with AMP 64 μg/ml, simultaneously
# Experimental: FIG. 3B presents: Pseudomonas aeruginosa (ATCC BAA-2110), a Multi-Drug Resistant (MDR) strain of bacteria were cultured in the presence of either OMN6 or AMP. The bacteria were introduced into solutions of OMN6 (32 μg/ml) and AMP (64 μg/ml) at concentrations that were previously shown to be non-effective when added alone. […] The bacteria were then cultured in the presence of a co-treatment with a combination of OMN6 and AMP, and administered simultaneously, in the same non-effective concentrations described above.
# (§1) The bacteria were incubated for 17-20 hours and the growth of the bacteria was continuously monitored via spectrophotometry at 600 nm (OD600). As bacterial growth progresses, OD600 values rise, and where the growth is inhibited OD600 values remain constant.
# [2] = tested on: Salmonella serotype Typhimurium (ATCC 700408); assay: microbe, parasite or virus in culture; conditions: for bacterial growth (OD600), stand-alone treatment / bacterial growth (OD600), combination: 17-20 h; for bacterial growth (OD600), combination: simultaneously; for MIC: Salmonella
# Experimental: FIG. 1 presents: Salmonella serotype Typhimurium (ATCC 700408), a Multi-Drug Resistant (MDR) strain of bacteria were cultured in the presence of either OMN6 or Kanamycin KAN. […] The bacteria were incubated for 17-20 hours and the growth of the bacteria was continuously monitored via spectrophotometry at 600 nm (OD600). As bacterial growth progresses, OD600 values rise, and where the growth is inhibited OD600 values remain constant.
# as §1
# FIG. 3A presents: Salmonella serotype Typhimurium (ATCC 700408), a Multi-Drug Resistant (MDR) strain of bacteria were cultured in the presence of OMN6 or AMP.
# [3] = tested on: Pseudomonas aeruginosa (ATCC BAA-2110); assay: Growth of MDR bacteria monitored by OD600 under peptide, antibiotic or co-treatment; conditions: AMP alone 128 μg/ml; 17-20 h; FIG. 3B
# [4] = tested on: Salmonella serotype Typhimurium (ATCC 700408); assay: microbe, parasite or virus in culture; conditions: for MIC: Salmonella; for bacterial growth (OD600), combination: simultaneously; for bacterial growth (OD600), combination / bacterial growth (OD600), stand-alone treatment: 17-20 h
# [5] = OMN6 32 μg/ml together with AMP 128 μg/ml, FIG. 3A
molecule,measurement,setting,value
"CC1(C)S[C@@H]2[C@H](NC(=O)[C@H](N)c3ccccc3)C(=O)N2[C@H]1C(=O)O [AMP, Ampicillin, reference compound]","bacterial growth (OD600), stand-alone treatment",[1]; AMP alone 64 μg/ml,did not inhibit bacterial growth and did not lead to bacterial death
same,"bacterial growth (OD600), combination",[1],complete and long-lasting antimicrobial effect; also recorded: powerful antimicrobial effect
same,MIC,"[1]; Pseudomonas aeruginosa, ATCCBAA2110, in co-treatment with OMN6 32 μg/ml, read-out: Minimal Inhibitory Concentration (MIC) of co-treatment, AMP part",64 µg/mL
same,"bacterial growth (OD600), stand-alone treatment","[2]; AMP alone 128 μg/ml, FIG. 3A",did not inhibit bacterial growth and did not lead to bacterial death; also recorded: did not inhibit bacterial growth effectively
same,"bacterial growth (OD600), combination",[2]; [5],complete and long-lasting antimicrobial effect; also recorded: powerful antimicrobial effect
same,MIC,"[2]; read-out: Minimal Inhibitory Concentration (MIC) of co-treatment, AMP part",128 µg/mL
same,"bacterial growth (OD600), stand-alone treatment",[3],did not inhibit bacterial growth effectively
"C[C@@H](O)[C@H]1C(=O)N2C(C(=O)O)=C(SCCN=CN)C[C@H]12 [IPM, Imipenem, reference compound]",MIC,"[4]; read-out: Minimal Inhibitory Concentration (MIC) of co-treatment, IPM part",32 µg/mL
"NC[C@H]1O[C@H](O[C@H]2[C@H](O)[C@@H](O[C@H]3O[C@H](CO)[C@@H](O)[C@H](N)[C@H]3O)[C@H](N)C[C@@H]2N)[C@H](O)[C@@H](O)[C@@H]1O [KAN, Kanamycin, reference compound]",MIC,"[2]; in co-treatment with OMN6 217 μg/ml, FIG. 1, read-out: Minimal Inhibitory Concentration (MIC) of co-treatment, KAN part",3.75 µg/mL
CC[C@H](C)[C@H](NC(=O)CNC(=O)[C@H](CCC(=O)O)NC(=O)[C@H](CO)NC(=O)[C@@H](NC(=O)[C@H](CCCNC(=N)N)NC(=O)[C@H](CCCCN)NC(=O)[C@H](CCCCN)NC(=O)[C@H](C)NC(=O)[C@H](CO)NC(=O)[C@H](CC(N)=O)NC(=O)[C@H](CCC(=O)O)NC(=O)[C@H](CC(C)C)NC(=O)[C@H](CCCCN)NC(=O)[C@H](CCCCN)NC(=O)[C@H](C)NC(=O)[C@@H](NC(=O)[C@H](CCCCN)NC(=O)[C@H](CO)NC(=O)[C@H](CC(C)C)NC(=O)[C@H](Cc1c[nH]c2ccccc12)NC(=O)[C@H](CO)NC(=O)[C@H](CS)NC(=O)[C@@H](N)CCSC)[C@@H](C)O)[C@@H](C)CC)C(=O)N[C@@H](C)C(=O)N[C@H](C(=O)N[C@@H](C)C(=O)N[C@H](C(=O)N[C@@H](CCC(N)=O)C(=O)NCC(=O)NCC(=O)N1CCC[C@H]1C(=O)N[C@@H](CCCNC(=N)N)C(=O)N[C@@H](CS)C(=O)O)[C@@H](C)CC)[C@@H](C)CC [OMN11] (H-MCSWLSKTAKKLENSAKKRISEGIAIAIQGGPRC-OH; N-terminus and C-terminus assumed),"bacterial growth (OD600), combination","[4]; OMN11 304 μg/ml together with IPM 32 μg/ml, FIG. 2",complete and long-lasting antimicrobial effect; also recorded: powerful antimicrobial effect
same,"bacterial growth (OD600), stand-alone treatment","[4]; OMN11 alone 304 μg/ml, FIG. 2",did not inhibit bacterial growth and did not lead to bacterial death; also recorded: did not inhibit bacterial growth effectively
"CN(C)[C@@H]1C(O)=C(C(N)=O)C(=O)[C@@]2(O)C(O)=C3C(=O)c4c(O)cccc4[C@@](C)(O)[C@H]3C[C@@H]12 [TET, Tetracycline, reference compound]",MIC,"[4]; in co-treatment with OMN6 32 μg/ml, FIG. 4, read-out: Minimal Inhibitory Concentration (MIC) of co-treatment, TET part",162 µg/mL
"OMN6: modified H. cecropia Cecropin A peptide, MCKWKLFKKIEKVGQNIRDGIIKAGPAVAVVGQATQIAKC (ends and bridges not checked; cysteine pairing not given here)","bacterial growth (OD600), combination","[4]; OMN6 32 μg/ml together with TET 16 μg/ml, FIG. 4",complete and long-lasting antimicrobial effect; also recorded: powerful antimicrobial effect
same,"bacterial growth (OD600), stand-alone treatment","[4]; OMN6 alone 217 μg/ml, FIG. 1",did not inhibit bacterial growth and did not lead to bacterial death; also recorded: did not inhibit bacterial growth effectively
same,"bacterial growth (OD600), combination",[1],complete and long-lasting antimicrobial effect; also recorded: powerful antimicrobial effect
same,"bacterial growth (OD600), stand-alone treatment",[1]; OMN6 alone 32 μg/ml,did not inhibit bacterial growth and did not lead to bacterial death; also recorded: did not inhibit bacterial growth effectively
same,"Minimal Inhibitory Concentration (MIC) of co-treatment, OMN6 part",[1]; in co-treatment with AMP 64 μg/ml,32 µg/mL
same,"bacterial growth (OD600), combination",[2]; [5],complete and long-lasting antimicrobial effect; also recorded: powerful antimicrobial effect
same,"bacterial growth (OD600), combination","[2]; OMN6 217 μg/ml together with KAN 3.75 μg/ml, FIG. 1",complete and long-lasting antimicrobial effect; also recorded: powerful antimicrobial effect
same,"bacterial growth (OD600), stand-alone treatment","[2]; OMN6 alone 32 μg/ml, FIG. 3A",did not inhibit bacterial growth and did not lead to bacterial death; also recorded: did not inhibit bacterial growth effectively
same,"bacterial growth (OD600), stand-alone treatment","[2]; OMN6 alone 32 μg/ml, FIG. 4",did not inhibit bacterial growth and did not lead to bacterial death; also recorded: did not inhibit bacterial growth effectively
same,"Minimal Inhibitory Concentration (MIC) of co-treatment, OMN6 part","[2]; in co-treatment with AMP 128 μg/ml, FIG. 3A",32 µg/mL
same,"Minimal Inhibitory Concentration (MIC) of co-treatment, OMN6 part","[2]; in co-treatment with KAN 3.75 μg/ml, FIG. 1",217 µg/mL
